Measurements from patent US20040234992A1, “Method of detection of conformational change in a nucleic acid duplex by treatment with oxidising or reactive agent as a result of exposure to environmental or chemical conditions” (priority 2001, published 2004).

Experiments:
calf thymus DNA (Z-DNA) = assay: Permanganate oxidation of calf thymus Z-DNA (NaCl) incubated with intercalators; conditions: for Level of oxidation (induced by chemical) Net A420 nm: Z-DNA (NaCl), Expt minus Control, 2 min-1 h; for Level of oxidation (induced by chemical) Net A420 nm / ΔA420 nm (2 min-1 h) (Expt): 35° C.; for ΔA420 nm (2 min-1 h) (Expt): calf thymus DNA + NaCl + intercalator 6.3 nmol + KMnO4
Protocol: The intercalator (10 μl, […]) was incubated with the solution containing calf thymus DNA (5 μl, 8.27 μg) and NaCl (600 μl, 5M NaCl solution) in water (355 μl) at 40° C. for 1 h. The reaction mixture was treated with KMnO4 (30μ of 10 mM solution) and maintained at 35° C. for 60 min. The absorbance at 420 nm was obtained at 2 min and 60 min by Cary 300 spectrophotometer (Varian Inc.). The level of oxidation was based on the absorbance at A420 nm of the experiment and control (without DNA) experiments as described in the experimental section. Four intercalators (with published data on unwinding degree) were used in the experiment: doxorubicin (10°), daunomycin (12°), 9-aminoacridine (17°) and ethidium bromide (28°); and
Due to limited information about the degree of unwinding of intercalators, only four intercalators with different degree of unwinding were employed in the experiment: doxorubicin (10°), daunorubicin (12°), 9-aminoacridine (17°) and ethidium bromide (28°). The Z-DNA samples were mixed in equal amounts of intercalators and the reactions were carried out under identical conditions. Calf thymus DNA (5 μl, 8.27 μg) was incubated with NaCl (600 μl, SM NaCl solution), the DNA binding agent or intercalator (10 μl, 6.3 nmol) in distilled H2O (355 μl). 4 non-sequence specific intercalators were used in the model study: doxorubicin, daunorubicin, 9-aminoacridine and ethidium bromide. The reaction mixture was gently mixed on shaker at 40° C. for 1 h. After incubation time, KMnO4 (30 μl) was added to the reaction mixture and the resulting mixture was transferred to the quartz cuvette and the absorbance (420 nm) was obtained at 35° C. for 2- and 60-min time-points. The level of oxidation induced by intercalator is based on the net absorbance and calculated as follows:
Net A420 nm=[A420 nm of the Expt (60 min)−A420 nm of the Expt (2 min)]−[A420 nm of the Control (60 min)−A420 nm of the Control (2 min)]
Where Net A420 nm represents the level of oxidation of the DNA-chemical adduct.
The Expt=calf thymus DNA+NaCl+DNA binding agent+KMnO4
The Control=DNA binding agent+KMnO4.
The control experiment (without DNA binding agent) was treated under identical conditions as described above.

duplex DNA = conditions: published data; cited from earlier work

Row | SMILES | Level of oxidation (induced by chemical) Net A420 nm (calf thymus DNA (Z-DNA)) | ΔA420 nm (2 min-1 h) (Expt) (calf thymus DNA (Z-DNA)) | degree of unwinding (duplex DNA) | rate of permanganate oxidation (kinetic data) (calf thymus DNA (Z-DNA); Z-DNA incubated with intercalator, ranking among the four intercalators)
1 | Nc1c2ccccc2nc2ccccc12 [9-aminoacridine] | 0.0726 arbitrary unit | 0.1327 | 17 ° | –
2 | COc1cccc2c1C(=O)c1c(O)c3c(c(O)c1C2=O)C[C@@](O)(C(C)=O)C[C@@H]3O[C@H]1C[C@H](N)[C@H](O)[C@H](C)O1 [daunorubicin] | 0.0957 arbitrary unit | 0.1670 | 12 ° | –
3 | COc1cccc2c1C(=O)c1c(O)c3c(c(O)c1C2=O)C[C@@](O)(C(=O)CO)C[C@@H]3O[C@H]1C[C@H](N)[C@H](O)[C@H](C)O1 [doxorubicin] | 0.1029 arbitrary unit | 0.1427 | 10 ° | fastest
